Here are results for 2 compounds from patent US20160278348A1, “METHOD FOR CONTROLLING WATER MOLDS IN AQUACULTURE WATER” (SUKEGAWA CHEMICALS CO., LTD., priority 2014, published 2016).

Assay [1] has as its system water molds (genus Saprolegnia). The assay is described as follows: Experiment 1: water mold culture on hempseed cotyledons, sensitized time 30 min. The assay is classed as cell-based. As to conditions: 100 ppm; sensitized 30 min.
Assay [2] has the same test system. The assay is described as follows: Experiment 2: water mold culture on hempseed cotyledons, sensitized time 60 min. Format: cell-based.

On to `O=[N+]([O-])C(Br)(CO)CO` [bronopol], for which the Haze entry in assay [1] is given as “no effect”; in assay [2] (100 ppm, sensitized 60 min) it was “no effect”; in assay [2] (1200 ppm, sensitized 60 min) it was “could not be prevented”. Also, the Zoospores result is “effective” in assay [1] and “effective” in assay [2] (100 ppm, sensitized 60 min).
Consider sodium chlorite, for which the minimum killing concentration in assay [2] (sensitized time 60 minutes, as chlorine dioxide) is given as 2.5 ppm.
